Measured values taken from patent US9328138B2 (priority 2011, dated 2016).

What was measured:
[1] = target: T1, HCV genotype 1b (BK) NS3 modified enzyme with a R155K mutation (Hepatitis C virus genotype 1b, UniProt P26663, R1181K); experiment: HCV NS3 protease time-resolved fluorescence (TRF) assay, genotype 1b R155K; assay type: biochemical; conditions: Ki 1b R155K
T1 construct: HCV genotype 1b (BK) NS3 modified enzyme
Outline: (§1)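 IC50 values derive from 4-parameter fitting of TRF signal after a 6 h room-temperature cleavage of 25 nM peptide substrate by NS3/NS4A that had been pre-incubated 10 min with compound.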

[2] = target: HCV NS3 protease genotype 3a (3A-1) (Hepatitis C virus genotype 3a, UniProt Q81258); experiment: HCV NS3 protease time-resolved fluorescence (TRF) assay, genotype 3a; assay type: biochemical; conditions: Ki 3a
Outline: as §1

[3] = genotype 1b (BK) NS3 R155K, single value
[4] = first of two values printed in the cell (not explained)
[5] = second of two values printed in the cell (not explained)

SMILES | Ki [1, 3] [nM] | Ki [2] [nM] | Ki [1, 4] [nM] | Ki [1, 5] [nM]
CC1(S(=O)(=O)NC(=O)[C@@]23C[C@H]2/C=C\CCCCC[C@@H]2NC(=O)O[C@@H]4C[C@H]4CCC/C=C/c4c(nc5ccccc5c4OCCN4CCOCC4)O[C@@H]4C[C@@H](C(=O)N3)N(C4)C2=O)CC1 [Example 297, (1aR,5S,11Z,12aS,13aR,16S,19R,27E, 31aR)-N-[(1-methylcyclopropyl)sulfonyl]-26-[2-(morpholin-4-yl)ethoxy]-3,15,33-trioxo-1,1a,3,4,5,6,7,8,9,10,12a,13,15,16,18,19,29, 30,31,31a-icosahydro-5,17:16,19-dimethanodicyclopropa[12,13:28,29][1,20,3, 14,17]dioxatriazacyclononacosino[21,22-b]quinoline-13a(14H)-carboxamide] | 0.27 | 4.3 |  | 
C=C[C@@H]1C[C@]1(NC(=O)[C@@H]1C[C@@H]2CN1C(=O)[C@H](C(C)(C)C)NC(=O)O[C@@H]1C[C@H]1CCCCCc1c(nc3cc(C(C)C)ccc3c1OCCCN1CCS(=O)(=O)CC1)O2)C(=O)NS(=O)(=O)C1(C)CC1 [Example 162, (1aR,5S,8S,10R,22aR)-5-tert-butyl-17-[3-(1,1-dioxidothiomorpholin-4-yl)propoxy]-N-[(1R,2S)-2-ethenyl-1-{[(1-methylcyclopropyl)sulfonyl]carbamoyl}cyclopropyl]-3,6-dioxo-14-(propan-2-yl)-1,1a,3,4,5,6,9,10,18, 19,20,21,22,22a-tetradecahydro-8H-7,10-methanocyclopropa[18,19] [1,10,3,6]dioxadiazacyclononadecino [11,12-b]quinoline-8-carboxamide] | 0.18 | 1.7 |  | 
C=C[C@@H]1C[C@]1(NC(=O)[C@@H]1C[C@@H]2CN1C(=O)[C@H](C(C)(C)C)NC(=O)O[C@@H]1C[C@H]1CCCCCc1c(nc3ccccc3c1OCCCNC1CCCc3ccccc31)O2)C(=O)NS(=O)(=O)C1(C)CC1 (stereo partly drawn) [Example 204, (1aR,5S,8S,10R,22aR)-5-tert-butyl-N-[(1R,2S)-2-ethenyl-1-{[(1-methylcyclopropyl)sulfonyl]carbamoyl}cyclopropyl]-3,6-dioxo-17-[3-(1,2,3,4-tetrahydronaphthalen-1-ylamino)propoxy]-1,1a,3,4,5,6,9,10,18,19, 20,21,22,22a-tetradecahydro-8H-7,10-methanocyclopropa[18,19][1,10,3,6] dioxadiazacyclononadecino[11,12-b] quinoline-8-carboxamide] | 0.15 | 2.4 |  | 
CN1CCN(CCCOc2c3c(nc4ccccc24)O[C@@H]2C[C@H]4C(=O)N[C@]5(C(=O)NS(=O)(=O)C6(C)CC6)C[C@H]5/C=C\CCCCC[C@H](NC(=O)O[C@@H]5C[C@H]5CCC/C=C/3)C(=O)N4C2)CC1 [Example 304, (1aR,5S,11Z,12aS,13aR,16S,19R,27E, 31aR)-N-[(1-methylcyclopropyl)sulfonyl]-26-[3-(4-methylpiperazin-1-yl)propoxy]-3,15,33-trioxo-1,1a,3,4,5,6,7,8,9,10,12a,13,15,16,18, 19,29,30,31,31a-icosahydro-5,17:16,19-dimethanodicyclopropa[12,13:28,29] [1,20,3,14,17] dioxatriazacyclononacosino[21,22-b]quinoline-13a(14H)-carboxamide] | 0.078 | 1.2 |  | 
C=C[C@@H]1C[C@]1(NC(=O)[C@@H]1C[C@@H]2CN1C(=O)[C@H](C(C)(C)C)NC(=O)O[C@@H]1C[C@H]1CCCCCc1c(nc3ccccc3c1OCCCN1CC(O)(c3ccccc3)C1)O2)C(=O)NS(=O)(=O)C1(C)CC1 [Example 193, (1aR,5S,8S,10R,22aR)-5-tert-butyl-N-[(1R,2S)-2-ethenyl-1-{[(1-methylcyclopropyl)sulfonyl]carbamoyl}cyclopropyl]-17-[3-(3-hydroxy-3-phenylazetidin-1-yl)propoxy]-3,6-dioxo-1,1a,3,4,5,6,9,10,18,19,20, 21,22,22a-tetradeca hydro-8H-7,10-methanocyclopropa[18,19][1,10,3,6] dioxadiazacyclononadecino[11,12-b] quinoline-8-carboxamide] | 0.16 | 1.5 |  | 
C=C[C@@H]1C[C@]1(NC(=O)[C@@H]1C[C@@H]2CN1C(=O)[C@H](C(C)(C)C)NC(=O)O[C@@H]1C[C@H]1CCCCCc1c(nc3ccccc3c1-c1ccccn1)O2)C(=O)NS(=O)(=O)C1(C)CC1 [Example 245, (1aR,5S,8S,10R,22aR)-5-tert-butyl-N-[(1R,2S)-2-ethenyl-1-{[(1-methylcyclopropyl)sulfonyl]carbamoyl}cyclopropyl]-3,6-dioxo-17-(pyridin-2-yl)-1,1a,3,4,5,6,9,10,18,19,20,21,22,22a-tetradecahydro-8H-7,10-methanocyclopropa[18,19][1,10,3,6]dioxadiazacyclononadecino[11,12-b]quinoline-8-carboxamide] |  | 128 | 0.546 | 1.41
C=C[C@@H]1C[C@]1(NC(=O)[C@@H]1C[C@@H]2CN1C(=O)[C@H](C1CCCC1)NC(=O)O[C@@H]1C[C@H]1CC/C=C/Cc1c(nc3ccccc3c1OC)O2)C(=O)NS(=O)(=O)C1CC1 [Example 11, (1aR,5S,10R,19E,22aR)-5-cyclo pentyl-N-{(1R,2S)-1-[(cyclopropylsulfonyl)carbamoyl]-2-ethenylcyclopropyl}-17-methoxy-3,6-dioxo-1,1a, 3,4,5,6,9,10,18,21,22,22a-dodeca hydro-8H-7,10-methanocyclopropa[18,19][1,10,3,6] dioxadiazacyclononadecino[11,12-b] quinoline-8-carboxamide] | 0.26 | 11 |  | 
C=C[C@@H]1C[C@]1(NC(=O)[C@@H]1C[C@@H]2CN1C(=O)[C@H](C(C)(C)C)NC(=O)O[C@@H]1CCC[C@H]1CCCCCc1c(nc3ccccc3c1OCCN1CCOCC1)O2)C(=O)NS(=O)(=O)N1CCCCC1 [Example 110, (3aR,7S,10S,12R,24aR)-7-tert-butyl-N-{(1R,2S)-2-ethenyl-1-[(piperidin-1-ylsulfonyl)carbamoyl]cyclopropyl}-19-[2-(morpholin-4-yl)ethoxy]-5,8-dioxo-1,2,3,3a,5,6,7,8, 11,12,20,21,22,23,24,24a-hexadecahydro-10H-9,12-methanocyclopenta[18,19] [1,10,3,6]dioxadiaza-cyclononadecino[11,12-b] quinoline-10-carboxamide] | 14 | 488 |  | 
C=C[C@@H]1C[C@]1(NC(=O)[C@@H]1C[C@@H]2CN1C(=O)[C@H](C1CCCCC1)NC(=O)O[C@@H]1C[C@H]1CCCCCc1c(nc3ccccc3c1OCCCN1CCC(F)(F)CC1)O2)C(=O)NS(=O)(=O)C1(C)CC1 [Example 170] | 1.1 | 21 |  | 
C=CC1C[C@]1(NC(=O)[C@@H]1C[C@@H]2CN1C(=O)[C@H](C1CCCC1)NC(=O)O[C@@H]1CCC[C@H]1CC/C=C/Cc1c(nc3ccccc3c1OCCN1C(=O)CCC1=O)O2)C(=O)NS(=O)(=O)C1CC1 (stereo partly drawn) [Example 76, (3aR,7S,10S,12R,21E,24a)-7-cyclo pentyl-N-{(1R,2S)-1-[(cyclopropylsulfonyl)carbamoyl]-2-ethenylcyclopropyl}-19-[2-(2,5-dioxopyrrolidin-1-yl)ethoxy]-5,8-dioxo-1,2,3,3a,5,6,7,8,11,12,20,23,24,24a-tetradeca hydro-10H-9,12-methanocyclopenta[18,19][1,10,3,6] dioxadiazacyclononadecino[11,12-b] quinoline-10-carboxamide] | 0.09 | 0.71 |  | 
C=C[C@@H]1C[C@]1(NC(=O)[C@@H]1C[C@@H]2CN1C(=O)[C@H](C1CCCCC1)NC(=O)O[C@@H]1C[C@H]1CCCCCc1c(nc3ccccc3c1OC1CCN(CCS(C)(=O)=O)CC1)O2)C(=O)NS(=O)(=O)C1(C)CC1 [Example 271, (1aR,5S,8S,10R,22aR)-5-cyclohexyl-N-[(1R,2S)-2-ethenyl-1-{[(1-methylcyclopropyl)sulfonyl]carbamoyl}cyclopropyl]-17-({1-[2-(methylsulfonyl)ethyl]piperidin-4-yl}oxy)-3,6-dioxo-1,1a,3,4,5,6,9,10,18,19,20,21,22,22a-tetradecahydro-8H-7,10-methanocyclopropa[18,19][1,10,3,6]dioxadiazacyclononadecino[11,12-b]quinoline-8-carboxamide] |  | 5.2 | 0.023 | 0.215
C=C[C@@H]1C[C@]1(NC(=O)[C@@H]1C[C@@H]2CN1C(=O)[C@H](C1CCCC1)NC(=O)O[C@@H]1CCC[C@H]1CC/C=C/Cc1c(nc3ccccc3c1OCCCN1CCCCC1)O2)C(=O)NS(=O)(=O)C1(C)CC1 [Example 58, (3aR,7S,10S,12R,21E,24aS)-7-cyclopentyl-N-[(1R,2S)-2-ethenyl-1-{[(1-methylcyclopropyl)sulfonyl]carbamoyl}cyclopropyl]-5,8-dioxo-19-[3-(piperidin-1-yl)propoxy]-1,2,3,3a,5,6,7,8,11,12,20,23,24,24a-tetra decahydro-10H-9,12-methanocyclopenta[18,19][1,10,3,6] dioxadiazacyclononadecino[11,12-b] quinoline-10-carboxamide] | 0.1 | 0.57 |  | 
C=CC1C[C@]1(NC(=O)[C@@H]1C[C@@H]2CN1C(=O)[C@H](C1CCCC1)NC(=O)O[C@@H]1CCC[C@H]1CC/C=C/Cc1c(nc3ccccc3c1OCCN1CCCC1)O2)C(=O)NS(=O)(=O)C1CC1 (stereo partly drawn) [Example 80, (3aR,7S,10S,12R,21E,24aS)-7-cyclo pentyl-N-{(1R,2S)-1-[(cyclopropylsulfonyl)carbamoyl]-2-ethenylcyclopropyl}-5,8-dioxo-19-[2-(pyrrolidin-1-yl)ethoxy]-1,2,3,3a,5,6,7,7,8,11,12,20,23,24,24a-tetradecahydro-10H-9,12-methanocyclopenta[18,19] [1,10,3,6]dioxa diazacyclononadecino[11,12-b] quinoline-10-carboxamide] | 0.2 | 2.4 |  | 
